pEC50: −log10 of the molar value. Read-outs that look alike come from different tables or passages of the source.
What was measured:
[1] = Monkey PK after single-dose intravenous infusion; assay type: in vivo, monkeys; conditions: for half-life: cynomolgus, monkeys, single-dose intravenous infusion for 30 minutes, plasma, read-out: Cyno half-life (converted)
Method: Test compound PK was determined in monkeys (Labcorp, Madison, Wis.) following a single-dose intravenous infusion for 30 minutes. The dosing vehicle was 10% N-methylpyrrolidone; 50% polyethylene glycol 300 and 40% water (pH 8.3) for intravenous administration in monkeys. Serial blood samples were collected at predose, 0.25, 0.48 (before end of infusion), 0.58, 0.75, 1, 1.5, 2, 4, 8, 12, 24, 48, 72, 96, 120, 144, and 168 hours postdose (based on start of infusion) and plasma test compound concentrations were quantified using an LC-MS/MS method.
Nonclinical plasma samples were prepared by addition of 200 μl cold acetonitrile/internal standard solution to 96-well plates containing 50 μl aliquots of each plasma sample. After protein precipitation, each of the supernatants (50 μl) were transferred to clean 96-well plates and diluted with 450 μl of water. The sample injection volume was 2 μl. Samples were analyzed by a multiple reaction monitoring LC-MS/MS method. LC-MS system consisted of a Cohesive LX-2 multiplex with two identical DIONEX UltiMate 3000 RS pumps, Hypersil Gold C18 HPLC column (50×2.1 mm, […]; Thermo Fisher Scientific), and the ABSciex QTRAP5500 Mass Spectrometer LC-MS/MS system. Chromatography was performed using 0.1% formic acid and 1% isopropyl alcohol in aqueous solution (MP A), and 0.1% formic acid and 1% isopropyl alcohol in acetonitrile (MP B).
Plasma PK parameters for test compounds in monkeys were estimated via noncompartmental analysis using the software program Phoenix WinNonlin, version 6.3 (Pharsight Corporation, Mountain View, Calif.). The following plasma PK parameters were estimated in nonclinical species (as appropriate): observed peak plasma concentration (Cmax), time to reach Cmax (Tmax), last quantifiable plasma concentration (Clast), tin, time of Clast (Tlast), area under the plasma concentration-time curve (AUC) from time 0 to Clast (AUClast), AUC from time 0 to infinity (AUCinf), CL, mean residence time (MRT), and volume of distribution at steady state (Vss).

[2] = Cytotoxicity assay in MT-4 cells; assay type: cell-based; conditions: human, uninfected MT-4 cells, 5 days, Cell Titer Glo; read-out: CC50
Outline: (§1)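 Uninfected MT-4 cells were incubated with 1:3 serially diluted compound in RPMI/10% FBS for 5 days at 37° C. Viability was read by CellTiter-Glo luminescence, with 10 μM puromycin as the baseline cytotoxicity control. Values are the concentration giving a 50% decrease in luminescence, from sigmoidal dose-response fits.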

[3] = test system: HIV-1 (IIIB); assay: Antiviral assay in MT-4 cells; assay type: cell-based; conditions: HIV-1 IIIB infected MT-4 cells, 5 days, Cell Titer Glo, read-out: MT4 EC50
Outline: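 MT-4 cells infected with a 1:250 dilution of HIV-1 IIIB stock were incubated with serially diluted (1:3) compound for 5 days at 37 °C. Viability read by Cell Titer Glo luminescence; EC50 is the concentration giving 50% decrease in signal, from sigmoidal dose-response fits.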

[4] = test system: pLai RLuc reporter virus; assay: HIV MT-4 serum shift antiviral reporter assay; assay type: cell-based; conditions: for EC50: Human immunodeficiency virus 1, 72 h; for pEC50: 72 h, Renilla Glo
Outline: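 MT-4 cells pre-infected with pLai RLuc virus for 2 h at 37 °C, then incubated 72 h at 37 °C with compound in medium (RPMI, 10% FBS) with or without 50% human serum; Renilla luminescence read. EC50 from sigmoidal fit; serum shift = EC50(HS/CCM)/EC50(CCM).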

[5] = test system: MT-4 cells; assay: Cytotoxicity assay in MT-4 cells; assay type: cell-based
Outline: as §1

[6] = Human immunodeficiency virus 1, IIIB, MT4, 120 h
[7] = read-out: RLUC 50% HS (nM), HS/CCM: 50% human serum, 72 h, Renilla Glo
[8] = read-out: RLUC CCM (nM), cell culture media (RPMI, 10% FBS), 72 h, Renilla Glo
[9] = read-out: RLUC 50% HS, HS/CCM: 50% human serum

C[C@@H]1C=C[C@H](C)N2CN1n1cc(C(=O)NCc3c(F)cc(F)cc3F)c(=O)c(O)c1C2=O [Example C24, (1S,2R,5S)-8-hydroxy-2,5-dimethyl-7,9-dioxo-N-(2,4,6-trifluorobenzyl)-2,5,7,9-tetrahydro-1,6-methanopyrido[1,2-b][1,2,5]triazonine-10-carboxamide]
half-life [1]: 57 h
CC50 at 5 days [2]: 11400 nM
pEC50 [3, 6]: 9.01
EC50 [4, 7]: 328 nM
EC50 [4, 8]: 0.44 nM

C[C@H]1C=C[C@H](C)N2CN1C(=O)c1c(O)c(=O)c(C(=O)NCc3c(F)cc(F)cc3F)cn12 [Example C25, (1S,2S,5S)-8-hydroxy-2,5-dimethyl-7,9-dioxo-N-(2,4,6-trifluorobenzyl)-2,5,7,9-tetrahydro-1,6-methanopyrido[1,2-b][1,2,5]triazonine-10-carboxamide]
half-life [1]: 55 h
CC50 at 5 days [2]: 17400 nM
pEC50 [3]: 9.00
EC50 [4, 8]: 0.47 nM
pEC50 [4, 9]: 7.17

C[C@H]1CC[C@H](C)N2CN1C(=O)c1c(O)c(=O)c(C(=O)NCc3c(F)cc(F)cc3F)cn12 [Example C27, (1S,2R,5S)-8-hydroxy-2,5-dimethyl-7,9-dioxo-N-(2,4,6-trifluorobenzyl)-2,3,4,5,7,9-hexahydro-1,6-methanopyrido[1,2-b][1,2,5]triazonine-10-carboxamide]
half-life [1]: 48 h
CC50 at 5 days [2]: 9550 nM
pEC50 [3, 6]: 8.89
EC50 [4, 8]: 0.55 nM
pEC50 [4, 9]: 6.23

C[C@@H]1C=C[C@H](C)N2CN1n1cc(C(=O)NCc3ccc(F)cc3F)c(=O)c(O)c1C2=O [Example C29, (1S,2R,5S)—N-(2,4-difluorobenzyl)-8-hydroxy-2,5-dimethyl-7,9-dioxo-2,5,7,9-tetrahydro-1,6-methanopyrido[1,2-b][1,2,5]triazonine-10-carboxamide]
half-life [1]: 32 h
CC50 at 5 days [2]: 18700 nM
pEC50 [3, 6]: 9.15
EC50 [4, 7]: 169 nM
EC50 [4, 8]: 0.31 nM

C[C@H]1C=C[C@H](C)N2CN1C(=O)c1c(O)c(=O)c(C(=O)NCc3ccc(F)cc3F)cn12 [Example C30, (1S,2S,5S)-8-hydroxy-2,5-dimethyl-7,9-dioxo-N-(2,4-difluorobenzyl)-2,5,7,9-tetrahydro-1,6-methanopyrido[1,2-b][1,2,5]triazonine-10-carboxamide]
half-life [1]: 6 h
CC50 at 5 days [2]: 35800 nM
pEC50 [3, 6]: 8.89
EC50 [4, 7]: 29 nM
EC50 [4, 8]: 0.32 nM

C[C@H]1CC[C@H](C)N2CN1C(=O)c1c(O)c(=O)c(C(=O)NCc3ccc(F)cc3F)cn12 [Example C31, (1S,2S,5S)—N-(2,4-difluorobenzyl)-8-hydroxy-2,5-dimethyl-7,9-dioxo-2,3,4,5,7,9-hexahydro-1,6-methanopyrido[1,2-b][1,2,5]triazonine-10-carboxamide]
half-life [1]: 9 h
CC50 at 5 days [2]: 7850 nM
pEC50 [3, 6]: 9.05
EC50 [4, 7]: 328 nM
EC50 [4, 8]: 0.41 nM

C[C@@H]1CC[C@H](C)N2CN1n1cc(C(=O)NCc3ccc(F)cc3F)c(=O)c(O)c1C2=O [Example C37, (1S,2R,5S)—N-(2,4-difluorobenzyl)-8-hydroxy-2,5-dimethyl-7,9-dioxo-2,3,4,5,7,9-hexahydro-1,6-methanopyrido[1,2-b][1,2,5]triazonine-10-carboxamide]
half-life [1]: 22 h
CC50 at 5 days [2]: 8570 nM
pEC50 [3, 6]: 8.89
EC50 [4, 7]: 325 nM
EC50 [4, 8]: 0.87 nM

CC[C@@H]1C=C[C@H](C)N2CN1n1cc(C(=O)NCc3c(F)cc(F)cc3F)c(=O)c(O)c1C2=O [Example C72, (1S,2R,5S)-2-ethyl-8-hydroxy-5-methyl-7,9-dioxo-N-(2,4,6-trifluorobenzyl)-2,5,7,9-tetrahydro-1,6-methanopyrido[1,2-b][1,2,5]triazonine-10-carboxamide]
half-life [1]: 51 h
CC50 at 5 days [2]: 13800 nM
pEC50 [3, 6]: 9.30
EC50 [4, 7]: 251 nM
EC50 [4, 8]: 0.33 nM

C[C@H]1C=C[C@@H](CF)N2CN1C(=O)c1c(O)c(=O)c(C(=O)NCc3c(F)cc(F)cc3F)cn12 [Example C76, (1S,2S,5S)-2-(fluoromethyl)-8-hydroxy-5-methyl-7,9-dioxo-N-(2,4,6-trifluorobenzyl)-2,5,7,9-tetrahydro-1,6-methanopyrido[1,2-b][1,2,5]triazonine-10-carboxamide]
half-life [1]: 60 h
CC50 at 5 days [2]: 16400 nM
pEC50 [3, 6]: 9.00
EC50 [4, 7]: 265 nM
EC50 [4, 8]: 0.42 nM

O=C(NCc1c(F)cc(F)cc1F)c1cn2c(c(O)c1=O)C(=O)N1CCCCN2C1 [Example C109, (1S)-8-hydroxy-7,9-dioxo-N-(2,4,6-trifluorobenzyl)-2,3,4,5,7,9-hexahydro-1,6-methanopyrido[1,2-b][1,2,5]triazonine-10-carboxamide]
Cyno half-life ([1]; in vivo, iv): 4.7 h
CC50 [5]: 15200 nM
pEC50 [3]: 8.92
pEC50 ([4]; HS/CCM: 50% human serum, read-out: RLUC 50% HS): 7.94
pEC50 ([4]; cell culture media (RPMI, 10% FBS), read-out: RLUC CCM): 9.21

— US11613546B2, “Substituted pyridotriazine compounds and uses thereof” (Gilead Sciences, Inc., priority 2021, dated 2023)
